Consider one compound from US20080009623A1, “Pyrimidine compounds” (Eisai R&D Management Co., Ltd., priority 2006, published 2008).

In assay [1] the target is T1, Human adenosine A2B receptor (Homo sapiens, UniProt P29275).
T1 construct: expressed in transfected cells; host or cells: CHOK1 cells
T1 sequence (P29275 1-332): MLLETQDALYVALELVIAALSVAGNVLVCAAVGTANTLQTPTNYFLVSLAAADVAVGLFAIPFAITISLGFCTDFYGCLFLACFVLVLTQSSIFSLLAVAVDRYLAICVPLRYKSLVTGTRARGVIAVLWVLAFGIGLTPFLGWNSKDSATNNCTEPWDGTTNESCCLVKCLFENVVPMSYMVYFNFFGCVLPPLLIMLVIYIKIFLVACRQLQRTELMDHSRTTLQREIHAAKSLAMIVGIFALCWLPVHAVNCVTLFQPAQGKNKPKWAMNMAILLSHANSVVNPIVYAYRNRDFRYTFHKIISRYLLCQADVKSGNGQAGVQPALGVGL
Kind of assay: Inhibition of NECA-stimulated cAMP production in A2B receptor expressed cells. The assay is classed as cell-based. Conditions: CHOK1 cells over-expressing human A2B; 30 nM NECA; in the presence of Ro-20-1724; cAMP enzyme immunoassay; read-out: 50% inhibitory concentration (IC50) for NECA-stimulated cAMP production. The procedure:
Human adenosine A2B receptor was over-expressed in CHOK1 cells. The cells were uniformly placed on a 24-well plate at the rate of 1.5×10^5 cells/well, incubated for one night and then used for the experiments. The inhibition rate of the compound of the present invention for the amount of cAMP produced by stimulation of 30 nM of 5′-N-ethylcarboxyamideadenosine (NECA; manufactured by Sigma corporation) was evaluated as affinity of the compound of the present invention to the A2B receptor. Thus, after washing adherent cells with 2 mL/well of a Krebs-Ringer buffer (containing 0.1 % BSA; pH7.4) twice, a pre-incubation was carried out at 0.5 mL/well for 30 minutes. After that, […] of a mixed solution containing NECA and the compound of the present invention were added in the presence of Ro-20-1724 (manufactured by RBI corporation) which is a phosphodiesterase inhibitor. 15 minutes after pre-incubation, the reaction was stopped by adding 0.1N HCl to the reaction solution. Measurement of cAMP was carried out using a cAMP enzyme immunoassay kit manufactured by Amersham corporation. Calculation of the inhibition rate of the compound of the present invention to the NECA-stimulated cAMP production was carried out by the following expression. […]
(In general: Cyclic AMP is a second messenger, typically raised through Gs and lowered through Gi signalling.)

Assay [2] concerns the target T2, Human adenosine A1 receptor (Homo sapiens, UniProt P30542).
T2 construct: expressed in transfected cells; host or cells: CHOK1 cells (membrane specimen)
T2 sequence (P30542 1-326): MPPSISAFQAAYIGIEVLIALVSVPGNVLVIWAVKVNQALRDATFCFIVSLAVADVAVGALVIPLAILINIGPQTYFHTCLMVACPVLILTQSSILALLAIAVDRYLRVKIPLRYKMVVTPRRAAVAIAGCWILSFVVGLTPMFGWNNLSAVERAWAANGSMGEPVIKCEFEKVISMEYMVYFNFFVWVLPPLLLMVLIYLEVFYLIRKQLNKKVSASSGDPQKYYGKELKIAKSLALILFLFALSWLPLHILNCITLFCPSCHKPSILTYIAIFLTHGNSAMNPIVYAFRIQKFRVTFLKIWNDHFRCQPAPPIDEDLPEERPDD
Description: Adenosine A1 receptor binding experiment (3H-CCPA displacement, CHOK1 membrane specimen). Conditions: calculated from IC50 by Cheng-Prusoff's expression; 3H-CCPA binding, membranes of CHOK1 cells over-expressing human A1, 30° C., 120 minutes; read-out: inhibition constant (Ki value). The procedure: Human adenosine A1 receptor cDNA was subjected to an over-expression in CHOK1 cells and its membrane specimen was suspended in a 20 mM HEPES buffer (containing 10 mM MgCl2 and 100 mM NaCl; pH 7.4) to make the protein concentration of 66.7 μg/mL. To 0.45 mL of this membrane specimen suspension were added 0.025 mL of tritium-labeled 60 nM chlorocyclopentyl adenosine (^3H-CCPA, manufactured by NEN corporation) and 0.025 mL of a solution of the compound of the present invention. The mixture was allowed to stand at 30° C. for 120 minutes, subjected to a quick suction on a glass fiber filter (GF/B; manufactured by Whatman) and immediately washed with 5 mL of water-cooled 50 mM Tris-HCl buffer twice. After that, the glass fiber filter was transferred to a vial bottle, a scintillator was added, and the radioactivity on the filter was measured by a liquid scintillation counter. […]
At this point, total binding amount is a ^3H-CCPA binding radioactivity in the absence of the compound of the present invention, non-specific binding amount is a ^3H -CCPA binding radioactivity in the presence of 100 μM of RPIA ([R]-[1-methyl-2-phenylethyl]adenosine), and binding amount in the presence of the compound of the present invention is a ^3H-CCPA binding radioactivity in the presence of the compound of the present invention of various concentrations.

The Ki is the equilibrium dissociation constant of an inhibitor or competing ligand from its target. On to `Cn1cc(-c2c(O)nc(N)nc2-c2ccco2)ccc1=O` [the compound of the present invention, 5-[2-amino-4-(2-furyl)-6-hydroxypyrimidin-5-yl]-1-methylpyridin-2(1H)-one], for which, in assay [1], the IC50 amounted to 0.0727 µM. Further, in assay [2], the Ki was 0.157 µM.
